Measurements taken from patent publication US6933308B2 (Bristol-Myers Squibb Company, priority 2002, dated 2005).

Tested on: KCNQ channels
Assay: Thallium flux assay for KCNQ channel openers
Type: cell-based
Settings: HEK-293 cells stably transfected with a KCNQ family member; for Min conc. response: minimal active concentration: lowest concentration giving signal >= 4 SD of negative controls; for EC50: thallium flux, 10 point concentration series
Experimental: Thallium Flux Assay for KCNQ Channel Openers.
The thallium assay is a modification of that published by Weaver and is referenced in its entirety (Weaver, C. D. WO 02/31508, 2002).
Approximately 20,000 cells/well of an HEK-293 cell line stably transfected with one of the members of the KCNQ family were plated into clear-bottom, black-walled, poly-D-lysine coated, 384 well assay plates in 20 μl/well of low chloride plating medium. Low chloride plating medium was composed of the following: sodium gluconate, 109 mM; potassium gluconate, 5.4 mM; hemi-calcium gluconate, 3.6 mM; magnesium sulfate, 0.8 mM; sodium bicarbonate, 26.2 mM; sodium phosphate monobasic, 1.2 mM; glutamine, 2 mM; glucose, 5 mM; 4-(2-hydroxyethyl)-1-piperazineethanesulfonic acid (HEPES) (pH 7.3) 10 mM, MEM vitamin solution (10× concentration of vitamins, Gibco/LifeTechnologies 11120-052) and MEM amino acid solution (1× concentration of amino acids, Gibco/LifeTechnologies 11130-051).
Following overnight incubation in a 5% CO2 incubator at 37° C., the cells in the plates were loaded with 20 μl/well of a dye loading solution containing the commercially available thallium-sensitive fluorescent dye BTC-AM, the acetomethoxy ester of BTC (see U.S. Pat. No. 5,501,980) (2 μM) and pluronic acid F-127 (Molecular Probes P 6867) (0.02% w/v) in chloride free assay buffer. Chloride free assay buffer was composed of the following: sodium gluconate, 140 mM; potassium gluconate, 2.5 mM; hemi-calcium gluconate, 6 mM; hemi-magnesium gluconate, 2 mM; glucose, 5 mM; HEPES (pH 7.3), 10 mM.
Following incubation in the dye loading solution for from 45-90 min at room temperature, the dye loading solution was removed by aspiration and replaced with 40 μl/well of chloride free assay buffer.
Prior to addition to cell plates, test compound and standard compounds were dissolved in DMSO to 3 mM concentration. Compounds were then diluted from the 3 mM stock to 100-fold over the final assay concentration in DMSO. Finally, compounds in DMSO were diluted from 100-fold over the final assay concentration to 5-fold over the final assay concentration in chloride free assay buffer.
Ten μl/well of compounds at 5-fold over the final assay concentration were then added to the cell plates. This represents a 1:5 dilution, yielding the final test concentration. The wells used for test compounds were A1-P20. Wells A21-P22 contained a standard opener and a maximally efficacious concentration (positive control). Wells A23-P24 contained chloride free assay buffer containing 1% DMSO (negative control).
Following addition of test compounds, the plates were loaded onto the Molecular Devices FLIPR. The 488 nm line of the argon laser was used to excite the BTC and the emission filter was a 540(+/−30) nm. Images were collected at 1 Hz. Ten seconds of baseline were collected and then the FLIPR was used to add 13 μl/well of a stimulus buffer composed of 7.5 mM Tl2SO4 in chloride free assay buffer. Images were collected for an additional 60 seconds.
For data analysis, the amplitude of the average of the negative controls was subtracted from all wells. The amplitudes of the test compounds were then compared to the value of four standard deviations of the negative control wells. The lowest concentration of a test compound sufficient to generate a signal amplitude greater than or equal to four standard deviations from the amplitude of the negative controls was defined as the minimal active concentration.
For generating EC50 values, compounds were serially diluted in 1:3 volume increments to produce a 10 point concentration series. EC50 values were calculated by fitting the resulting amplitudes to a single-site logistic equation. EC50 was defined as the concentration of test compound required to yield 50% of the maximal response. Maximal response (Maximal opening) was the largest signal amplitude divided by the negative control amplitude generated by any concentration of a test compound. […]

| EC50 [nM] | Structure (SMILES) | Min conc. response [µM] |
| --- | --- | --- |
| 1000 to 20000 | CC(NC(=O)c1sc(CCN2CCCCC2)nc1C(F)(F)F)c1cccc(C(F)(F)F)c1 (centres unmarked) [Example 24, 2-[2-(1-piperidinyl)ethyl]-N-[1-[3-(3-trifluoromethyl)phenyl]ethyl]-4-(trifluoromethyl)-5-thiazolecarboxamide] | 0.3 |
| 1000 to 20000 | C[C@H](NC(=O)c1sc(CCN2CCCCC2)nc1C(F)(F)F)c1cccc(-c2cccnc2)c1 [Example 32, 2-[2-(1-piperidinyl)ethyl]-N-[1-[3-(3-pyridinyl)phenyl]ethyl]-4-(trifluoromethyl)-5-thiazolecarboxamide] | 3 |
| 1000 to 20000 | CC(NC(=O)c1sc(CCN(C)CCN(C)C)nc1C(F)(F)F)c1cccc(C(F)(F)F)c1 (centres unmarked) [Example 20] | 30 |
| 1000 to 20000 | CC(NC(=O)c1sc(CCN2CCC(O)CC2)nc1C(F)(F)F)c1cccc(OC(F)(F)F)c1 (centres unmarked) [Example 26, 2-[2-(4-hydroxy-1-piperidinyl)ethyl]-4-(trifluoromethyl)-N-[1-[3-(trifluoromethoxy)phenyl]ethyl]-5-thiazolecarboxamide] | 10 |
| 1000 to 20000 | CCC(CC)NCCc1nc(C(F)(F)F)c(C(=O)NC(C)c2cccc(OC(F)(F)F)c2)s1 (centres unmarked) [Example 33, 2-[2-(3-pentylamino)ethyl]-N-[1-[3-(trifluoromethoxy)phenyl]ethyl]-4-(trifluoromethyl)-5-thiazolecarboxamide] |  |
| 1000 to 20000 | CCC(CC)NCCc1nc(C(F)(F)F)c(C(=O)NC(C)c2cccc(C(F)(F)F)c2)s1 (centres unmarked) [Example 34, 2-[2-(3-pentylamino)ethyl]-N-[1-[3-(trifluoromethyl)phenyl]ethyl]-4-(trifluoromethyl)-5-thiazolecarboxamide] | 3 |
| 50 to 1000 | CC(NC(=O)c1sc(CCN2CCCCC2)nc1C(F)(F)F)c1cccc(OC(F)(F)F)c1 (centres unmarked) [Example 22, 2-[2-(1-piperidinyl)ethyl]-N-[1-[3-(3-trifluoromethoxy)phenyl]ethyl]-4-(trifluoromethyl)-5-thiazolecarboxamide] | 0.3 |
| 1000 to 20000 | CC(NC(=O)c1sc(CCN2CCCC2)nc1C(F)(F)F)c1cccc(OC(F)(F)F)c1 (centres unmarked) [Example 13, 2-[2-(1-pyrrolidinyl)ethyl]-4-(trifluoromethyl)-N-[1-[3-(trifluoromethoxy)phenyl]ethyl]-5-thiazolecarboxamide] | 10 |
| 1000 to 20000 | CC(NC(=O)c1sc(CCN2CCN(C)CC2)nc1C(F)(F)F)c1cccc(OC(F)(F)F)c1 (centres unmarked) [Example 21, 2-[2-(4-methyl-1-piperazinyl)ethyl]-N-[1-[3-(3-trifluoromethoxy)phenyl]ethyl]-4-(trifluoromethyl)-5-thiazolecarboxamide] | 0.3 |
|  | CC(NC(=O)c1sc(C(O)CN2CCCCC2)nc1C(F)(F)F)c1cccc(C(F)(F)F)c1 (centres unmarked) [Example 56, 2-[1-hydroxy-2-(1-piperidinyl)ethyl]-4-(trifluoromethyl)-N-[1-[3-(trifluoromethyl)phenyl]ethyl]-5-thiazolecarboxamide] | 30 |
| < 50 | CCCN(CCc1nc(C(F)(F)F)c(C(=O)NC(C)c2cccc(OC(F)(F)F)c2)s1)CC1CC1 (centres unmarked) [Example 28, 2-[2-[(cyclopropylmethyl)propylamino]ethyl]-N-[1-[3-(trifluoromethoxy)phenyl]ethyl]-4-(trifluoromethyl)-5-thiazolecarboxamide] | 0.3 |
|  | CC(NC(=O)c1sc(C(O)CN2CCN(C)CC2)nc1C(F)(F)F)c1cccc(C(F)(F)F)c1 (centres unmarked) [Example 53, 2-[1-hydroxy-2-(4-methyl-1-piperazinyl)ethyl]-4-(trifluoromethyl)-N-[1-[3-(trifluoromethyl)phenyl]ethyl]-5-thiazolecarboxamide] | 30 |
| 50 to 1000 | CCCN(CC1CC1)CC(O)c1nc(C(F)(F)F)c(C(=O)NC(C)c2cccc(OC(F)(F)F)c2)s1 (centres unmarked) [Example 44] | 3 |
|  | C[C@H](NC(=O)c1sc(C(O)CN2CCN(C)CC2)nc1C(F)(F)F)c1cccc(-c2cccnc2)c1 (stereo partly drawn) [Example 55, 2-[1-hydroxy-2-(4-methyl-1-piperazinyl)ethyl]-N-[(1S)-1-[3-(3-pyridinyl)phenyl]ethyl]-4-(trifluoromethyl)-5-thiazolecarboxamide] | 0.3 |
|  | CC(NC(=O)c1sc(CCN(C)CCN(C)C)nc1C(F)(F)F)c1cccc(N(C)C)c1 (centres unmarked) [Example 47, 2-[2-[[2-(dimethylamino)ethyl]methylamino]ethyl]-N-[1-[3-(dimethylamino)phenyl]ethyl]-4-(trifluoromethyl)-5-thiazolecarboxamide] | 0.3 |
| 50 to 1000 | CC(NC(=O)c1sc(C(O)CN(C)Cc2ccco2)nc1C(F)(F)F)c1cccc(C(F)(F)F)c1 (centres unmarked) [Example 43, 2-[1-hydroxy-[2-(2-furanylmethyl)methylamino]ethyl]-N-[1-[3-(trifluoromethyl)phenyl]ethyl]-4-(trifluoromethyl)-5-thiazolecarboxamide] | 3 |
| < 50 | CC(NC(=O)c1sc(CCN(C)Cc2ccco2)nc1C(F)(F)F)c1cccc(OC(F)(F)F)c1 (centres unmarked) [Example 14, 2-[2-[(2-furanylmethyl)methylamino]ethyl]-4-(trifluoromethyl)-N-[1-[3-(trifluoromethoxy)phenyl]ethyl]-5-thiazolecarboxamide] | 3 |
|  | C[C@H](NC(=O)c1sc(CCN2CCOCC2)nc1C(F)(F)F)c1cccc(N2CCOCC2)c1 [Example 45, 2-[2-(4-morpholinyl)ethyl]-N-[(1S)-1-[3-(4-morpholinyl)phenyl]ethyl]-4-(trifluoromethyl)-5-thiazolecarboxamide] | 3 |
| 1000 to 20000 | CC(NC(=O)c1sc(CCN2CCCCC2)nc1C(F)(F)F)c1cccc(N(C)C)c1 (centres unmarked) [Example 23, N-[1-[3-(dimethylamino)phenyl]ethyl]-2-[2-(1-piperidinyl)ethyl]-4-(trifluoromethyl)-5-thiazolecarboxamide] | 0.3 |
|  | CC(NC(=O)c1sc(CCN2CCSCC2)nc1C(F)(F)F)c1cccc(N(C)C)c1 (centres unmarked) [Example 46, N-[1-[3-(dimethylamino)phenyl]ethyl]-2-[2-(4-thiomorpholinyl)ethyl]-4-(trifluoromethyl)-5-thiazolecarboxamide] | 3 |
| 1000 to 20000 | COCCN(CCOC)CCc1nc(C(F)(F)F)c(C(=O)NC(C)c2cccc(OC(F)(F)F)c2)s1 (centres unmarked) [Example 38] | 3 |
| 1000 to 20000 | CC(NC(=O)c1sc(CCN(C)CCN(C)C)nc1C(F)(F)F)c1cccc(OC(F)(F)F)c1 (centres unmarked) [Example 19] | 3 |
| < 50 | CCCN(CCc1nc(C(F)(F)F)c(C(=O)NC(C)c2cccc(C(F)(F)F)c2)s1)CC1CC1 (centres unmarked) [Example 30, 2-[2-[(cyclopropylmethyl)propylamino]ethyl]-N-[1-[3-(trifluoromethyl)phenyl]ethyl]-4-(trifluoromethyl)-5-thiazolecarboxamide] | 3 |
| < 50 | CC(NC(=O)c1sc(CCN(C)Cc2ccco2)nc1C(F)(F)F)c1cccc(-c2cccnc2)c1 (centres unmarked) [Example 12, 2-[2-[(2-furanylmethyl)methylamino]ethyl]-N-[1-[3-(3-pyridinyl)phenyl]ethyl]-4-(trifluoromethyl)-5-thiazolecarboxamide] | 3 |
